One assay relates to intestine ILC2. The assay is described as follows: Ki67 expression in intestine ILC2 after in vivo administration of NmU23. The arrangement: species or system mouse. To be noted: NmU23 4 g/day during 2 days (FIG. 10b). How it is done:
FIGS. 10a-10d: FIG. 10a, Ki67 expression in intestinal ILC2s after an overnight in vitro stimulation with NmU23 alone (100 ng/mL, Phoenix Pharmaceutical) or NmU23 together with the survival cytokines Interleukin (IL)-2 and/or IL-7 (10 ng/mL). FIG. 10b, Ki67 expression in intestine ILC2 after in vivo administration of NmU23 (4 g/day during 2 days). n=5. FIG. 10c, ILC2-derived type 2 cytokines (IL-5, IL-13 and Amphiregulin (Areg)) in sorted intestine ILC2 after an overnight stimulation with NmU23, mouse recombinant IL-25 or IL-33 (R&D) (10, 50 and 100 ng/mL). Negative control: unstimulated ILC2, Positive control: ILC2 activated with phorbol 12-myristate 13-acetate (PMA, 50 ng/ml) plus ionomycin (500 ng/ml). n=3. FIG. 10d, Dot plots representative of the cytokine production with increasing dose of NmU23, rIL-25 and rIL-33. *P<0.05; **P<0.01; ***P<0.001; ****P<0.0001; ns not significant.

Assay [1] concerns Nippostrongylus brasiliensis. In words: NmU23 treatment of N. brasiliensis infected mice. It is filed as in vivo, mouse. Here is the method: FIGS. 12a-12f: (FIGS. 12a-12c) Mice were infected with N. brasiliensis larvae and treated with NmU23 peptide (8 g/day) or PBS (control). Lungs were analysed at day 2 post-infection. FIG. 12a, ILC2 response in lungs from NmU23 treated mice (n=5) compared to control (n=5). FIG. 12b, Burden of infection in lungs of infected mice treated with PBS (n=5) or NmU23 (n=5). FIG. 12c, Pulmonary hemorrhage in lung of infected mice treated with NmU23 compared to control. (FIGS. 12d-12f) Mice were infected with N. brasiliensis larvae and treated with NmU23 peptide (8 g/day) or PBS (control). Lungs and small intestine were analysed at day 6 post-infection. FIG. 12d, Neutrophils and eosinophils infiltrate in broncho-alveolar lavage (BAL) in infected mice treated with NmU23 versus PBS. Control n=5; NmU23 n=5. FIG. 12e, Mastocytes and Macrophages infiltrate in broncho-alveolar lavage (BAL) in infected mice treated with NmU23 versus PBS. Control n=5; NmU23 n=5. FIG. 12f, Burden of infection in small intestine of infected mice treated with PBS (n=5) or NmU23 (n=5). Error bars show s.e.m. *P<0.05; **P<0.01; ***P<0.001; ****P<0.0001; ns not significant.
For in vitro experiments, purified lung and small intestine lamina propria ILC2s were FBS starved for 2 hours prior to stimulation and cultured in complete RPMI (supplemented with 10% foetal bovine serum (FBS), 1% hepes, sodium pyruvate, glutamine, streptomycin and penicillin) at 37° C. For mRNA analysis, ILC2s were stimulated overnight with recombinant mouse Neuromedin U 23 peptide (NmU23, 100 ng/mL; Phoenix pharmaceuticals). Both NmU23-stimulated and control ILC2s were cultured in the presence of IL-2 and IL-7 (10 ng/mL; Peprotech). ILC2s were lysed using RLT buffer (Qiagen). For cytokine protein analysis, ILC2s were incubated exclusively with brefeldin A (eBioscience) for 12 hours prior to intracellular staining. For in vivo experiments, B6 mice were injected intraperitoneal with NmU23 peptide (2 g/day) during Nippostrongylus brasiliensis infection or with a single dose of NmU23 (20 μg) and analyzed after 8 hours. Control mice were treated with PBS alone.
Nippostrongylus brasiliensis was maintained by monthly passages in Lewis rats as previously described^34. Infective (iL3) worms were kindly provided by Nicola Harris (Lausanne, Switzerland). iL3 larvae were treated for 15 minutes with penicillin/streptomycin (300 U/mL; Thermo Fisher Scientific), gentamicin (1.5 mg/mL; Sigma) and tetracyclin (30 μg/mL; Sigma), washed with PBS and counted under a stereomicroscope. Mice were injected subcutaneously with 500 iL3 in 200 μL of sterile PBS using a 21 G needle. Mice were sacrificed at day 2 post-infection and lungs were collected and analysed.
Lung parasite burden was quantified in finely minced lungs and as previously described^34. Lung were placed on sterile cheesecloth and suspended in a 50 mL tube containing PBS at 37° C. for at least 4 hours. Viable worms that migrate out into the bottom of the tube were counted under a stereomicroscope (steREO Lumar V12; Zeiss).
Mice were sacrificed by cervical dislocation, and caudal lobe of the right lung was harvested, fixed in 10% neutral buffered formalin and processed for paraffin embedding. […] Slides were analyzed by a pathologist blinded to experimental groups and images were acquired in a Leica DM2500 microscope, coupled with a Leica MC 170 HD microscope camera. […]

As for “recombinant mouse Neuromedin U 23 peptide (FKAEYQSPSVGQSKGYFLFRPRN; listed as Mus musculus) [NmU23, NMUR1 agonist neuropeptide, Phoenix pharmaceuticals]”, the “ILC2 proliferation as measured by Ki67, in vivo” value in the assay with intestine ILC2 is “increased ILC2 proliferation”. In assay [1] (NmU23 8 g/day vs PBS, day 2 post-infection), the “lung haemorrhage in N. brasiliensis infected mice” value is on record as “reduced lung haemorrhage”. Further, the “ILC2-derived IL-5, IL-13 and Amphiregulin in lungs of N. brasiliensis infected mice” value in assay [1] (NmU23 8 g/day vs PBS, day 2 post-infection (FIG. 12a)) was “increased ILC2-derived IL-5, IL-13 and Amphiregulin”. In assay [1] (NmU23 8 g/day vs PBS, day 2 post-infection (FIG. 12b)), the “lung parasite burden in N. brasiliensis infected mice” value was “decreased”. Further, the “intestinal parasite burden in N. brasiliensis infected mice” value in assay [1] (NmU23 8 g/day vs PBS, small intestine, day 6 post-infection (FIG. 12f)) is “decreased”. The “eosinophil infiltrates in the lung of N. brasiliensis infected mice” value in assay [1] (NmU23 intraperitoneal 2 g/day vs PBS, lungs at 48 hours) was “increased eosinophil infiltrates”.

For the origin of these results see patent US20190358264A1, “METHODS OF TREATING DISEASES ASSOCIATED WITH ILC2 CELLS” (Limm Therapeutics, SA, priority 2016, published 2019).
